The record followed here is ChEMBL document CHEMBL3301361, “Experimental in vitro DMPK and physicochemical data on a set of publicly disclosed compounds”.

The nature of data set [1]: physchem. As to conditions: octan-1-ol/water, pH 7.4, LogD7.4.
The nature of data set [2]: physchem. The conditions noted are these: pH 7.4 buffer.
The nature of data set [3]: in vitro. As to conditions: human, hepatocytes.
Data set [4] can be described thus: in vitro. The conditions noted are these: human, plasma, PPB.
The nature of data set [5]: in vitro. The conditions noted are these: SD, HW or BN, rat, plasma.
Data set [6] in a line: in vitro. As to conditions: human.

In brackets after ≈: the same amount, converted by molar mass.

A word on the logD: it is the decadic logarithm of the distribution of all forms, ionised or not, between an organic phase and buffer at a given pH. One may read the thermodynamic solubility as solubility found after equilibrating the solid with the medium. Usually hepatocyte CLint stands for the capacity of the preparation to metabolise the compound, expressed as a volume cleared per time. Read a high hepatocyte CLint as faster metabolism. In the data set “physchem [1]”, `COCCOc1nc(N)c2[nH]c(=O)n(Cc3cccc(CC(=O)OC)c3)c2n1` yielded a logD of 1.86. The thermodynamic solubility in the data set “physchem [2]” stood at 21.9 µM (≈ 8.48 µg/mL). Moreover, in the data set “in vitro [3]”, the hepatocyte CLint was 125 µL/min/1e6 cells.

For `CNc1ncnc2c(CNc3cc(NC(=O)c4ccc5c(c4)OCCO5)ccc3C)cccc12`, in the data set “physchem [1]”, the logD stood at 4. In addition, the solubility (thermodynamic) in “physchem [2]” came out at 9.3 µM (≈ 4.24 µg/mL). Besides, the hepatocyte CLint in the data set “in vitro [3]” turned out to be 41.7 µL/min/1e6 cells.

In general, fraction unbound refers to free concentration divided by total concentration. `Cc1ccc(-n2c(C)cc(/C=C3\SC(=O)NC3=O)c2C)cc1`: the fraction unbound at 5 h in “in vitro [4]” is 0.0016. Moreover, in the data set “in vitro [3]”, the hepatocyte CLint worked out at 17.8 µL/min/1e6 cells.

Regarding `N=c1c(S(=O)(=O)c2ccc(Cl)cc2)cc2c(=O)n3ccccc3nc2n1C1CCCC1`, the fraction unbound at 5 h in “in vitro [4]” worked out at 0.5. This molecule also displayed a hepatocyte CLint in “in vitro [3]” of 35.5 µL/min/1e6 cells.

As for `COc1ccccc1-c1csc(-n2ncc(C#N)c2N)n1`, the fraction unbound at 5 h in “in vitro [4]” was 0.591; in the data set “in vitro [5]” it was 0.529. In the data set “in vitro [3]”, this molecule yielded a hepatocyte CLint of 55 µL/min/1e6 cells.

For the molecule `Nc1nc(-c2ccc(Cl)c(Cl)c2)c(-c2ccncc2)s1`, the fraction unbound at 5 h in the data set “in vitro [4]” was 0.0074. In the data set “in vitro [3]”, the hepatocyte CLint stood at 19.1 µL/min/1e6 cells.

In the data set “physchem [1]”, `O=C(CN1CCOCC1)Nc1ccc(-c2cccc3c(=O)cc(N4CCOCC4)oc23)cc1O` yielded a logD of 2.4. In “physchem [2]”, this molecule returned a solubility (thermodynamic) of 7.2 µM (≈ 3.35 µg/mL). The molecule further returned a hepatocyte CLint in the data set “in vitro [3]” of 18.6 µL/min/1e6 cells.

In turn, `CCOc1cc(-c2cccc3c(=O)cc(N4CCOCC4)oc23)ccc1NC(=O)CN1CCOCC1` had a logD in “physchem [1]” of 2.8. For the same molecule, in “physchem [2]”, the solubility (thermodynamic) was determined as 1.4 µM (≈ 0.691 µg/mL). Also, the hepatocyte CLint in “in vitro [3]” is 51.3 µL/min/1e6 cells.

Take `CC(C)Oc1cc(-c2cccc3c(=O)cc(N4CCOCC4)oc23)ccc1NC(=O)CN1CCOCC1`: the logD in the data set “physchem [1]” worked out at 3. This molecule registered a thermodynamic solubility in “physchem [2]” of 4 µM (≈ 2.03 µg/mL). The hepatocyte CLint in the data set “in vitro [3]” amounted to 87.1 µL/min/1e6 cells.

Molecule `CC(C)COc1cc(-c2cccc3c(=O)cc(N4CCOCC4)oc23)ccc1NC(=O)CN1CCOCC1` had a logD in “physchem [1]” of 3.8. The thermodynamic solubility in the data set “physchem [2]” worked out at 3.5 µM (≈ 1.83 µg/mL). Further, the hepatocyte CLint in “in vitro [3]” is > 150 µL/min/1e6 cells.

The molecule `C=CCOc1cc(-c2cccc3c(=O)cc(N4CCOCC4)oc23)ccc1NC(=O)CN1CCOCC1` came in with a logD in “physchem [1]” of 3. In “physchem [2]”, this molecule gave a thermodynamic solubility of 4.7 µM (≈ 2.38 µg/mL). In “in vitro [3]”, this molecule returned a hepatocyte CLint of 83.2 µL/min/1e6 cells.

Consider `C[C@@H]1CN(C(=O)N[C@H](Cc2ccc(F)cc2)C(=O)N2CCC(C(=O)NC(C)(C)C)(C3CCCCC3)CC2)C[C@H](C)N1`, for which the fraction unbound at 5 h in the data set “in vitro [5]” was 0.0872. Besides, the hepatocyte CLint in “in vitro [3]” was determined as 10.7 µL/min/1e6 cells.

In turn, `COc1cc(C2CCN(C(C)=O)CC2)ccc1Nc1ncc(Cl)c(-c2cnc3ccccn23)n1` showed a thermodynamic solubility in the data set “physchem [2]” of 2.2 µM (≈ 1.05 µg/mL). In “in vitro [3]”, this molecule came in with a hepatocyte CLint of 24 µL/min/1e6 cells.

Turning to `COc1cc(C(CO)CO)ccc1Nc1ncc(Cl)c(-c2cnc3ccccn23)n1`, the logD in “physchem [1]” turned out to be 3.1. For the same molecule, the solubility (thermodynamic) in “physchem [2]” came to 6.8 µM (≈ 2.9 µg/mL). Moreover, in “in vitro [3]”, the hepatocyte CLint amounted to 19.9 µL/min/1e6 cells.

As to `COc1cc(N2CC3CNCC(C2)O3)ccc1Nc1ncc(Cl)c(-c2cnc3ccccn23)n1`, the solubility (thermodynamic) in “physchem [2]” worked out at 25.1 µM (≈ 12 µg/mL). The molecule also displayed a hepatocyte CLint in the data set “in vitro [3]” of 13.8 µL/min/1e6 cells.

Usually microsomal CLint stands for the capacity of the preparation to metabolise the compound, expressed as a volume cleared per time. Consider `Cc1ccc2c(c1)c(Sc1ccc(S(C)(=O)=O)cc1)c(C)n2CC(=O)O`, for which, in “physchem [1]”, the logD is -0.08. The same molecule showed a fraction unbound at 5 h in the data set “in vitro [4]” of 0.0081. For the same molecule, the microsomal CLint in the data set “in vitro [6]” (liver microsomes) was < 3 µL/min/mg. The hepatocyte CLint in the data set “in vitro [3]” was < 3 µL/min/1e6 cells.

In the case of `Cc1c(Oc2ccc(Cl)cc2)c2c(NS(C)(=O)=O)cccc2n1CC(=O)O`, in “physchem [1]”, the logD was -0.98. In “in vitro [4]”, this molecule had a fraction unbound at 5 h of 0.0374. In addition, the microsomal CLint in “in vitro [6]” (microsomes) was < 3 µL/min/mg. Besides, in “in vitro [3]”, the hepatocyte CLint was < 3 µL/min/1e6 cells.

`O=c1[nH]c2c(O)ccc([C@@H](O)CNCCc3ccc(CNCCc4ccccn4)cc3)c2s1`: in the data set “physchem [1]”, the logD is -0.25. The molecule also gave a fraction unbound at 5 h in the data set “in vitro [5]” of 0.483. Moreover, the hepatocyte CLint in “in vitro [3]” is < 3 µL/min/1e6 cells.

In “in vitro [4]”, `CC(C)(C)S(=O)(=O)N[C@H]1CC[C@H](C(=O)Nc2ccc(C(F)(F)F)cn2)CC1` showed a fraction unbound at 5 h of 0.0409. For the same molecule, in “in vitro [3]”, the hepatocyte CLint was found to be 5.75 µL/min/1e6 cells.

`CCN(C(=O)c1ccc(-c2ccc(Cl)cc2)o1)c1ccc(N2CCNCC2)cc1`: the logD in the data set “physchem [1]” is 3.3. The hepatocyte CLint in “in vitro [3]” was < 3 µL/min/1e6 cells.

As for `NC(=O)c1ccn2c(-c3ccccc3)c(-c3ccc(C4(N)CCC4)cc3)nc2c1`, the solubility (thermodynamic) in “physchem [2]” came out at 112 µM (≈ 42.9 µg/mL). The same molecule came in with a hepatocyte CLint in “in vitro [3]” of 3.72 µL/min/1e6 cells.

Regarding `NC1(c2ccc(-c3ncc4cccn4c3-c3ccccc3)cc2)CCC1`, the hepatocyte CLint in the data set “in vitro [3]” is < 3 µL/min/1e6 cells.

`CC1CNC(Nc2c(Cl)cccc2Cl)=N1` (stereo not given): the unbound share (fraction unbound) at 5 h in “in vitro [5]” was 0.64. In addition, the hepatocyte CLint in “in vitro [3]” was < 3 µL/min/1e6 cells.

In the data set “in vitro [5]”, `O=S(=O)(Nc1ccc2sc(CO)nc2c1)c1ccc(Br)cc1` had a fraction unbound at 5 h of 0.0018. In the data set “in vitro [3]”, this molecule yielded a hepatocyte CLint of 24.6 µL/min/1e6 cells.

On to `O=S(=O)(Nc1ccc(C(F)(F)F)cc1)c1ccc2sc(CO)nc2c1`, for which the fraction unbound at 5 h in “in vitro [4]” is 0.0027. In the data set “in vitro [3]”, this molecule had a hepatocyte CLint of 15.5 µL/min/1e6 cells.

`N#Cc1cccc(-c2cccc(C(=O)O)c2)c1` displayed a logD in the data set “physchem [1]” of 0.3. The hepatocyte CLint in the data set “in vitro [3]” was found to be 8.13 µL/min/1e6 cells.

Turning to `O=C(CCCc1ccc2cccnc2n1)NCc1cc(-c2ccc(F)c(C(F)(F)F)c2)no1`, the fraction unbound at 5 h in “in vitro [4]” was 0.0009; in “in vitro [5]”, 0.0119. This molecule also returned a hepatocyte CLint in the data set “in vitro [3]” of 19.9 µL/min/1e6 cells.

`O=C(NCc1ccc(OC(F)(F)F)cc1)C1c2ccccc2C(=O)N1CC1CC(F)(F)C1` (stereo not given) displayed a logD in the data set “physchem [1]” of 3.9. This molecule displayed a hepatocyte CLint in the data set “in vitro [3]” of 10 µL/min/1e6 cells.
